From patent US20260217706A1, “HETEROCYCLIC COMPOUNDS, PREPARATION METHOD THEREFOR AND USE THEREOF” (GUANGZHOU YUFAN NANTU BIOTECHNOLOGIES CO., LTD, priority 2023, published 2026)

Legend:
CBL-B protein = CBL-B protein (Homo sapiens, UniProt Q13191); experiment: CBL-B binding experiment (Streptavidin-Tb cryptate / Ligand L1 displacement); details: 8 nM CBL-B protein, 25° C., 60 minutes; Ki=Relative IC50/2
Method in brief: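 Buffer was 20 mM HEPES pH 7.5, 150 mM NaCl, 0.01% Triton X-100, 0.5 mM TCEP and BSA. Ten-point compound dilutions were incubated with 8 nM CBL-B for 60 min at 25° C., then read by luminescence after another 60 min at room temperature. IC50 came from a four-parameter fit, with Ki = relative IC50/2.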

[1] = system: anti-CD3 activated human PBMCs; experiment: Effect of compounds on the level of IL-2 secretion by anti-CD3 activated human PBMCs (IL-2 ELISA); assay type: cell-based; details: compound concentration at which fold change in IL-2 = 5; hPBMCs, CD3 antibody 2 μg/mL, 48 h, compound from 3 μM
Method: 2. Inoculate the resuspended cells into a 96-well cell culture plate at 200 ul/well of cell suspension, and incubate in a 37° C. cell incubator for 1 h;
3. Adjust the compound concentration with DMSO, starting at a final concentration of 3 μM, and perform a 3-fold dilution sequentially for 10 concentration gradients, with an additional DMSO control well set up; and
4. Adjust the CD3 antibody to an appropriate concentration to achieve a final concentration of 2 μg/mL, mix thoroughly, and incubate in a 37° C. cell incubator for 48h.
5. After 48 h, centrifuge at 1500 rpm for 5 min to collect the supernatant of the culture medium for the human IL-2 ELISA test.
The OD values obtained from the ELISA test are converted into the fold change (FC) in IL-2 concentration. […] The EC50 is calculated using GraphPad Prism. When the fold change=5, the corresponding compound concentration is CFC=5 (in nM).

CBL-B protein, sequence (Q13191 whole entry): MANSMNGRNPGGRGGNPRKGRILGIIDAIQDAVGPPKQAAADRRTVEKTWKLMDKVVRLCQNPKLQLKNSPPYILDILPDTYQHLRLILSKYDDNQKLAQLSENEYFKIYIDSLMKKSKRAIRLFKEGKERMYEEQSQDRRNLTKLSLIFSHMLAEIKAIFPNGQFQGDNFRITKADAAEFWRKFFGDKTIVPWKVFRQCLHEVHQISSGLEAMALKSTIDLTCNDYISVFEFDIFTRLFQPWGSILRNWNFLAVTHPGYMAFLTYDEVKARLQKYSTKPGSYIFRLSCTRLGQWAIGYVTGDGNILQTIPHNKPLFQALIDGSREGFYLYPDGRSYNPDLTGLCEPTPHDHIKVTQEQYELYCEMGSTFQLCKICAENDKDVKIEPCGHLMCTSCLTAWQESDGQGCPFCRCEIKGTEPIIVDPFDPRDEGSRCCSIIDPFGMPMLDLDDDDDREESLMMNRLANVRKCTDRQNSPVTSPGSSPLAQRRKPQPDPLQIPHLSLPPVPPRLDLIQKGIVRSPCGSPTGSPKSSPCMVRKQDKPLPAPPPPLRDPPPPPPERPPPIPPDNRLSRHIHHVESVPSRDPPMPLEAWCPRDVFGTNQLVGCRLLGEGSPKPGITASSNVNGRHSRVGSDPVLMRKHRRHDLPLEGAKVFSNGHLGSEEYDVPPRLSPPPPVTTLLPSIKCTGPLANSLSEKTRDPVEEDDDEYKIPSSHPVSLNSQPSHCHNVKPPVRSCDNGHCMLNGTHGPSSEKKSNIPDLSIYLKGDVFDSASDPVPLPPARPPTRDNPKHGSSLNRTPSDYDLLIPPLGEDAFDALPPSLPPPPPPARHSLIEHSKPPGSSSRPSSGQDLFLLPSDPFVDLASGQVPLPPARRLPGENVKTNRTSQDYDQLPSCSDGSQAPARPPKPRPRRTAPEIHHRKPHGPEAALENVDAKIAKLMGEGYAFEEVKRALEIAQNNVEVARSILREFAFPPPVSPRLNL

| SMILES | Ki (CBL-B protein) | IL-2 CFC=5/nM [1] |
| --- | --- | --- |
| Cn1cnnc1C1(c2cccc(-n3cc(C(F)(F)F)c4cc(CN5CCCC(C(F)F)C5)[nH]c4c3=O)c2)CCC1 (racemic) [Compound T114, 6-[3-[1-(4-methyl-1,2,4-triazol-3-yl)cyclobutyl]phenyl]-2-[[rac-(3S)-3-(difluoromethyl)-1-piperidyl]methyl]-4-(trifluoromethyl)-1H-pyrrolo[2,3-c]pyridin-7-one] | < 50 nM | <500 nM |
| C[C@H]1CCCN(Cc2cc(C(F)(F)F)c3cn(-c4cccc([C@]5(c6nncn6C)C[C@@H](C)C5)c4)c(=O)n3c2)C1 (racemic) [Compound T140, 2-(3-((1s,3R)-3-methyl-1-(4-methyl-4H-1,2,4-triazol-3-yl)cyclobutyl)phenyl)-6-(((S)-3-methylpiperidin-1-yl)methy 1)-8-(trifluoromethyl)imidazo[1,5-a]pyridin-3(2H)-one] | < 50 nM | <500 nM |
| CCN(C)Cc1cc2c(C(F)(F)F)cn(-c3cccc(C4(c5nncn5C)CCC4)c3)c(=O)c2[nH]1 [Compound T002, 2-((ethyl(methyl)amino)methyl)-6-(3-(1-(4-methyl-4H-1,2,4-triazol-3-yl)cyclobutyl)phenyl)-4-(trifluoromethyl)-1,6-dihydro-7H-pyrrolo[2,3-c]pyridin-7-one] | < 50 nM | <500 nM |
| CCN(CC)Cc1cc2c(C(F)(F)F)cn(-c3cccc(C4(c5nncn5C)CCC4)c3)c(=O)c2[nH]1 [Compound T005, 2-(diethylaminomethyl)-6-[3-[1-(4-methyl-1,2,4-triazol-3-yl)cyclobutyl]phenyl]-4-(trifluoromethyl)-1H-pyrrolo[2,3-c]pyridin-7-one] | < 50 nM | <500 nM |
| Cn1cnnc1C1(c2cccc(-n3cc(C(F)(F)F)c4cc(CN5CC6CC6C5)[nH]c4c3=O)c2)CCC1 (stereo not drawn) [Compound T007, 2-((3-azabicyclo[3.1.0]hexan-3-yl)methyl)-6-(3-(1-(4-methyl-4H-1,2,4-triazol-3-yl)cyclobutyl)phenyl)-4-(trifluoromethyl)-1,6-dihydro-7H-pyrrolo[2,3-c]pyridin-7-one] | < 50 nM | <500 nM |
| Cn1cnnc1C1(c2cccc(-n3cc(C(F)(F)F)c4cc(CNCCC5CC5)[nH]c4c3=O)c2)CCC1 [Compound T008, 2-[(2-cyclopropylethylamino)methyl]-6-[3-[1-(4-methyl-1,2,4-triazol-3-yl)cyclobutyl]phenyl]-4-(trifluoromethyl)-1H-pyrrolo[2,3-c]pyridin-7-one] | < 50 nM | <500 nM |
| Cn1cnnc1C1(c2cccc(-n3cc(C(F)(F)F)c4cc(CNC5(C)CCC5)[nH]c4c3=O)c2)CCC1 [Compound T009, 2-[[(1-methylcyclobutyl)amino]methyl]-6-[3-[1-(4-methyl-1,2,4-triazol-3-yl)cyclobutyl]phenyl]-4-(trifluoromethyl)-1H-pyrrolo[2,3-c]pyridin-7-one] | < 50 nM | <500 nM |
| C[C@H]1CCCN(Cc2cc3c(C4CC4)cn(-c4cccc(C5(Cc6nncn6C)CCC5)c4)c(=O)c3[nH]2)C1 [Compound T010, 4-cyclopropyl-2-[[(3S)-3-methyl-1-piperidyl]methyl]-6-[3-[1-[(4-methyl-1,2,4-triazol-3-yl)methyl]cyclobutyl]phenyl]-1H-pyrrolo[2,3-c]pyridin-7-one] | < 50 nM | <500 nM |
| C[C@H]1CCCN(Cc2cc3c(C4CC4)cn(-c4cccc([C@]5(c6nncn6C)C[C@@H](C)C5)c4)c(=O)c3[nH]2)C1 [Compound T011, 4-cyclopropyl-6-(3-((1s,3R)-3-methyl-1-(4-methyl-4H-1,2,4-triazol-3-yl)cyclobutyl)phenyl)-2-(((S)-3-methylpiperidin-1-yl)methyl)-1,6-dihydro-7H-pyrrolo[2,3-c]pyridin-7-one] | – | <500 nM |
| C[C@H]1CCCN(Cc2cc3c(C4CC4)cn(-c4cccc([C@@H](c5nncn5C)C5CCC5)c4)c(=O)c3[nH]2)C1 [Compound T013, 6-(3-((S)-cyclobutyl(4-methyl-4H-1,2,4-triazol-3-yl)methyl)phenyl)-4-cyclopropyl-2-(((S)-3-methylpiperidin-1-yl)methyl)-1,6-dihydro-7H-pyrrolo[2,3-c]pyridin-7-one] | < 50 nM | <500 nM |
| C[C@H]1CCCN(Cc2cc3c(C4CC4)cn(-c4cccc([C@]5(c6nncn6C)C[C@H](C)C5)c4)c(=O)c3[nH]2)C1 [Compound T014, 4-cyclopropyl-6-(3-((1r,3S)-3-methyl-1-(4-methyl-4H-1,2,4-triazol-3-yl)cyclobutyl)phenyl)-2-(((S)-3-methylpiperidin-1-yl)methyl)-1,6-dihydro-7H-pyrrolo[2,3-c]pyridin-7-one] | – | <500 nM |
| C[C@H]1CCCN(Cc2cc3c(C(F)(F)F)cn(-c4cccc(C(C)(C)c5nncn5C)c4)c(=O)c3[nH]2)C1 [Compound T017, 6-[3-[1-methyl-1-(4-methyl-1,2,4-triazol-3-yl)ethyl]phenyl]-2-[[(3S)-3-methyl-1-piperidyl]methyl]-4-(trifluoromethyl)-1H-pyrrolo[2,3-c]pyridin-7-one] | < 50 nM | <500 nM |
| CCN(CC)Cc1cc2c(C(F)(F)F)cn(-c3cccc([C@]4(c5nncn5C)C[C@@H](C)C4)c3)c(=O)c2[nH]1 [Compound T018, 2-((diethylamino)methyl)-6-(3-((1s,3s)-3-methyl-1-(4-methyl-4H-1,2,4-triazol-3-yl)cyclobutyl)phenyl)-4-(trifluoromethyl)-1,6-dihydro-7H-pyrrolo[2,3-c]pyridin-7-one] | < 50 nM | <500 nM |
| Cn1cnnc1C1(c2cccc(-n3cc(C(F)(F)F)c4cc(CN5CC[C@H](F)C5)[nH]c4c3=O)c2)CCC1 [Compound T020, 2-[[(3S)-3-fluoropyrrolidin-1-yl]methyl]-6-[3-[1-(4-methyl-1,2,4-triazol-3-yl)cyclobutyl]phenyl]-4-(trifluoromethyl)-1H-pyrrolo[2,3-c]pyridin-7-one] | – | <500 nM |
| Cn1cnnc1C1(c2cccc(-n3cc(C(F)(F)F)c4cc(CN5CC[C@@H](F)C5)[nH]c4c3=O)c2)CCC1 [Compound T021, 2-[[(3R)-3-fluoropyrrolidin-1-yl]methyl]-6-[3-[1-(4-methyl-1,2,4-triazol-3-yl)cyclobutyl]phenyl]-4-(trifluoromethyl)-1H-pyrrolo[2,3-c]pyridin-7-one] | – | <500 nM |
| C[C@H]1CCCN(Cc2cc3c(C(F)(F)F)cn(-c4cccc([C@]5(c6nncn6C)C[C@H](C#N)C5)c4)c(=O)c3[nH]2)C1 [Compound T136, (1S,3r)-3-(4-methyl-4H-1,2,4-triazol-3-yl)-3-(3-(2-(((S)-3-methylpiperidin-1-yl)methyl)-7-oxo-4-(trifluoromethyl)-1,7-dihydro-6H-pyrrolo[2,3-c]pyridin-6-yl)phenyl)cyclobutane-1-carbonitrile] | – | <500 nM |
| C[C@H]1CCCN(Cc2cc3c(C(F)(F)F)cn(-c4cccc([C@]5(c6nncn6C)C[C@@H](C#N)C5)c4)c(=O)c3[nH]2)C1 [Compound T137, (1R,3s)-3-(4-methyl-4H-1,2,4-triazol-3-yl)-3-(3-(2-(((S)-3-methylpiperidin-1-yl)methyl)-7-oxo-4-(trifluoromethyl)-1,7-dihydro-6H-pyrrolo[2,3-c]pyridin-6-yl)phenyl)cyclobutane-1-carbonitrile] | – | <500 nM |
| C[C@H]1CCCN(Cc2cc3c(C(F)(F)F)cn(-c4cccc([C@]5(c6nncn6C)C[C@@H](CC#N)C5)c4)c(=O)c3[nH]2)C1 [Compound T139, 2-((1R,3s)-3-(4-methyl-4H-1,2,4-triazol-3-yl)-3-(3-(2-(((S)-3-methylpiperidin-1-yl)methyl)-7-oxo-4-(trifluoromethyl)-1,7-dihydro-6H-pyrrolo[2,3-c]pyridin-6-yl)phenyl)cyclobutyl)acetonitrile] | – | <500 nM |
| CO[C@H]1C[C@@](c2cccc(-n3cc(C(F)(F)F)c4cc(CN5CCCC(C(F)F)C5)[nH]c4c3=O)c2)(c2nncn2C)C1 (stereo partly drawn) [Compound T155, 2-((3-(difluoromethyl)piperidin-1-yl)methyl)-6-(3-((1s,3s)-3-methoxy-1-(4-methyl-4H-1,2,4-triazol-3-yl)cyclobutyl)phenyl)-4-(trifluoromethyl)-1,6-dihydro-7H-pyrrolo[2,3-c]pyridin-7-one] | < 50 nM | – |
| CO[C@H]1C[C@@](c2cccc(-n3cc(C(F)(F)F)c4cc(CN5CCC[C@H]6C[C@H]65)[nH]c4c3=O)c2)(c2nncn2C)C1 [Compound T183] | – | <500 nM |
| CO[C@H]1C[C@](c2cccc(-n3cc(C(F)(F)F)c4cc(CN5CCC[C@H]6C[C@H]65)[nH]c4c3=O)c2)(c2nncn2C)C1 [Compound T185] | – | <500 nM |
| CCN(Cc1cc2c(C(F)(F)F)cn(-c3cccc([C@]4(c5nncn5C)C[C@H](OC)C4)c3)c(=O)c2[nH]1)C(C)C [Compound T193] | < 50 nM | – |
